The numbers were not newly measured in patent US8377976B2, “N-hydroxyamidinoheterocycles as modulators of indoleamine 2,3-dioxygenase” (Incyte Corporation, priority 2006, dated 2013), which cites them from elsewhere.

In data set [1] the test system is peripheral blood lymphocytes (PBLs). Conditions: HeLa cells co-cultured with PBLs.
Another data set concerns allogeneic concepti. The conditions noted are these: pregnant mice exposed to 1MT.
The test system of the next data set is P815 tumor. The conditions noted are these: pre-immunized immune-competent mice.
Data set [2] has as its system CD123-positive dendritic cells. The conditions noted are these: mature and immature CD123-positive dendritic cells.
The next data set has as its system LLC tumors. The conditions noted are these: C57B1/6 mice, versus placebo.
A further data set has as its system tumor growth. The conditions noted are these: mice.

The structures appear in SMILES notation.

`Cn1cc(C[C@H](N)C(=O)O)c2ccccc21` [Example 1-MT, 1-methyl-tryptophan]: in data set [1], the “reduction in PBL proliferation upon treatment with interleukin-2 (IL2)” value was “reversed”. For the same compound, the rejection of concepti entry with allogeneic concepti was “rapid, T cell-induced rejection of all allogeneic concepti”. Besides, the growth of tumors entry in the data set with P815 tumor is given as “inhibited”. Further, the “IDO suppressive activity on T-cell activity” value in data set [2] is on record as “blocked”. Moreover, the formation of tumors entry in the data set on LLC tumors is on record as “markedly delayed”. Besides, the “tumor growth in combination with chemotherapeutic agents” value in the data set with tumor growth is on record as “synergize with chemotherapeutic agents to reduce tumor growth”.
